Assay results reported in patent publication US20110123670A1, “COMESTIBLE PRODUCTS” (priority 2007, published 2011).

Columns and labels:
[1] = Determination of cooling effect: drop in temperature on dissolving sweetener powder in distilled water at 37° C.; assay type: physicochemical; conditions: cooling effect of sweeteners, tested in duplicate, mean
Description: 150 g of sweetener powder was dissolved in 50 ml of distilled water at 37° C. with stirring. The drop in temperature was measured after 20 seconds than a further 50 ml of distilled water added and the temperature measured after a further 20 seconds. This step was repeated […] to a total volume of water of 200 ml. All samples were tested in duplicate and the result derived from the mean of the values obtained. The repeated addition of water was intended to mimic the conditions in the mouth, where more saliva would be produced as chewing of the comestible progresses. As a result, the cooling effect is indicative of the cooling effect that would be observed in the mouth upon dissolution of the sweetener during consumption.

[2] = tested on: panel of 10-12 trained assessors; test: Determination of salivation effect: Quantitative Descriptive Analysis, Time-Intensity measurement of salivating mouthfeel; assay type: in vivo; conditions: for Increase Angle (°) / Time to Maximum Salivatory Effect / Area under Curve / Intensity at Maximum: salivating effect, chewy confectionary with 46.0 wt % test sweetener, 90 second test period, mean of at least 13 repetitions; for Area under Curve / Intensity at Maximum: relative values
From the text: (§1) Quantitative Descriptive Analysis was used to determine the salivation effect of the invention. Seven samples of confectionary were tasted by a panel of 10-12 trained assessors using the technique of Time-Intensity measurement. The samples differed only in the sweetener component of the product.
(§2) This technique involves the testing of the confectionary sample in a sensory booth. The booth contained a computer equipped with software which allowed the panellist to record the perceived level of the mouth-watering sensation with time. Each assessor measured the perceived intensity of salivating mouthfeel at 1 second intervals over a time period of 90 seconds for each sample. This was achieved by initiating a timer within the software as the sample was placed in the mouth. Over the subsequent 90 second period the position of a marker on a linear slide scale was adjusted according to the perceived level of salivation. The data thus obtained was then processed to produce an analysis curve (intensity of effect versus time). The assessment was repeated multiple times (multiple assessors were used and at least three repetitions per assessor) and the result derived from the mean of the values obtained. The parameters determined were as follows: • Time to maximum salivatory effect, the time taken in seconds for the sample to reach its maximum intensity, a short time being indicative of the desired rapid inception of mouth-watering; • Intensity of salivation at maximum, the highest point in the curve as recorded by each assessor, a high intensity being generally preferred; • Area under the analysis curve, the larger this area the greater the total salivation over the 90 second test period; and • Increase angle, the angle in degrees of ascent from the first recorded value to the maximum intensity, a greater increase angle on the curve illustrates which samples have the greatest increase in salivation per unit time.
A series of tests were carried out to determine the mouth-watering effect and cooling effect derived from each of a range of sweeteners. The sweeteners tested were sugar (sucrose), erythritol, isomaltulose, trehalose, galactose, dextrose monohydrate and xylitol. Conventional methods were used to prepare this candy chew.

[3] = tested on: panel of 10-12 trained assessors; test: Quantitative Descriptive Analysis of cooling effect (temperature decrease in the nose and mouth); assay type: in vivo; conditions: mean of at least 10 repetitions; for Increase Angle (°) / Area under Curve / Intensity at Maximum: cooling effect; for Area under Curve / Intensity at Maximum: relative values; for Time to maximum cooling effect: table of cooling effect parameters
From the text: as §1, §2
In addition, the Quantitative Descriptive Analysis as described above with regard to the evaluation of salivation was applied to determine the time to maximum cooling effect, the intensity of cooling at maximum, the area under the analysis curve and the increase angle. Cooling was assessed in terms of the temperature decrease in the nose and mouth, at the time of drawing air into the mouth. As with the determination of salivation using this technique, for effective cooling, a larger value is desirable for all parameters except the time to maximum cooling.

[4] = Studies by the applicant on galactose in sports drinks; assay type: in vivo; conditions: compared with glucose

Structure (SMILES)	Magnitude of reduction in temperature at T = 90 seconds (° C.) [1] [°C]	Increase Angle (°) [2] [°]	Time to Maximum Salivatory Effect [2] [s]	Area under Curve [2]	Intensity at Maximum [2]	Increase Angle (°) [3] [°]	Area under Curve [3]	Intensity at Maximum [3]	Time to maximum cooling effect [3] [s]	mouth-watering effect relative to that observed through the use of sugar ([2]; at the 90 second interval, FIG. 1)	incidence of hypoglycaemia [4]	overall sporting performance [4]
OC[C@@H](O)[C@@H](O)[C@H](O)[C@H](O)CO [Mannitol]	13.0											
OC[C@@H](O)[C@@H](O[C@H]1O[C@H](CO)[C@@H](O)[C@H](O)[C@H]1O)[C@H](O)[C@@H](O)CO [Maltitol]	16.5											
OC[C@@H](O)[C@H](O)[C@@H](O)CO [Xylitol, xylitol]	26.0	39.3	70.3	2874	53.1	46	2457	44.7	64.5			
OC[C@@H](O)[C@@H](O)CO [Erythritol, erythritol]		51.8	64.8	4079	73	81.5	3431	59.9	63.5			
OC[C@H]1O[C@H](OC[C@H]2OC(O)(CO)[C@@H](O)[C@@H]2O)[C@H](O)[C@@H](O)[C@@H]1O (some centres unmarked) [Isomaltulose, isomaltulose]		31.1	65.7	1898	34.3							
O.O=C[C@H](O)[C@@H](O)[C@H](O)[C@H](O)CO [Dextrose Monohydrate, dextrose monohydrate]	14.5	38	76.7	2306	52.1	36.5	663	24	81.9			
OC[C@H]1O[C@@](CO)(O[C@H]2O[C@H](CO)[C@@H](O)[C@H](O)[C@H]2O)[C@@H](O)[C@@H]1O [Sugar, sucrose]	13.5	35.1	58.9	1673	28.6							
O=C[C@H](O)[C@@H](O)[C@@H](O)[C@H](O)CO [Galactose, galactose]	11.0	51.5	62	3561	64.9	39.3	725	14.6	57.1	approximately 2.5 times	lower	increased
OC[C@H]1O[C@H](O[C@H]2O[C@H](CO)[C@@H](O)[C@H](O)[C@H]2O)[C@H](O)[C@@H](O)[C@@H]1O [Trehalose, trehalose]		35.3	66.5	2253	43							
